# Results reported in patent US12171743B2, “Forms of aticaprant” (Janssen Pharmaceuticals, Inc., priority 2022, dated 2024).
# Test system: subjects with MDD
# Assay: SHAPS total score (anhedonia), same study
# Type: in vivo, human
# Conditions: for SHAPS Total Score Change from Baseline LSMean Difference (SE) Treatment-Placebo: MMRM
# Description: To assess a potential effect on anhedonia, an anhedonia scale may be used. For example, the Snaith-Hamilton Pleasure Scale (SHAPS) analysis is a validated scale for the measurement of anhedonia. The SHAPS is a subject completed scale in which subjects score whether or not they experience pleasure in performing a list of activities or experiences. The SHAPS is a self-reported 14-item instrument, developed for the assessment of hedonic capacity. Subjects score whether they experience pleasure in performing a list of activities or experiences. Subjects can rate the answers as 1˜4 where 1 indicates “Definitely agree”, 2 indicates “Agree”, 3 indicates “Disagree” and 4 indicates “Definitely disagree”. The subject's item responses are summed to provide a total score ranging from 14 to 56. A higher total SHAPS score indicates higher levels of current anhedonia. Physician/clinical judgment can be used to assess anhedonia separately or in conjunction with an anhedonia scale.
# In some embodiments, the patient has moderate anhedonia. In other embodiments, the patient has severe anhedonia. An assessment of moderate or severe anhedonia is typically determined physician/clinical judgment and/or by one or more tests that provide insight into whether a patient has anhedonia. For example, the severity of the anhedonia may be determined using the SHAPS method. In some embodiments, a patient with moderate or severe anhedonia is considered to have a high level of anhedonia. For example, a patient with a SHAPS score of 38 or greater is considered to have moderate to severe anhedonia that can be considered a high level of anhedonia. In some embodiments, a high level of anhedonia is reflected by a SHAPS score of at least about 40, about 42, about 44, about 46, about 48, about 50, about 52, about 54, about 56, […]. A patient with mild or no anhedonia would be considered to have a low level of anhedonia that is assessed by physician/clinical judgment and/or one or more tests. For example, a patient with a SHAPS score of less than 38 is considered to have low anhedonia. In certain embodiments, a patient with mild anhedonia may have a SHAPS score of 20 to less than 38, for example, a SHAPS score of 20 to about 36, about 22 to about 36, about 24 to about 36, about 26 to about 36, about 26 to about 34, about 26 to about 32, about 26 to about 30, about 26 to about 28, about 28 to about 36, about 28 to about 36, about 30, to about 36, about 32 to about 36, about 34 to about 36, about 20 to about 34, about 22 to about 34, about 24 to about 34, about 26 to about 32, about 26 to about 30, about 26 to about 28, about 28 to about 36, about 28 to about 34, about 28 to about 32, about 28 to about 30, about 30 to about 36, about 30 to about 34, about 30 to about 32, about 32 to about 36, about 32 to about 34, or about 34 to about 36. Typically, a SHAPS score of less than 20 can be considered to correspond to normal hedonic functioning, and for purposes of this disclosure, would fall into the low category of anhedonia, e.g., a SHAPS score of less than 38.
# The secondary objectives are: • i. […] To investigate the effect of aticaprant versus placebo on depression related anhedonia as assessed by the SHAPS. • iv.
# [1] = fITT Analysis Set, Treatment Week 5
# [2] = number of subjects, eITT Analysis Set, Treatment Baseline, N 60
# [3] = number of subjects, eITT Analysis Set, Treatment Week 6, N 59
# [4] = number of subjects, fITT Analysis Set, Baseline/Day 22 (before treatment), N 83
# [5] = number of subjects, fITT Analysis Set, Treatment Baseline, N 83
smiles,measurement,setting,value
"Cc1cc(C)cc(C2CCCN2Cc2ccc(Oc3ccc(C(N)=O)cc3F)cc2)c1 (stereo not drawn) [aticaprant, 3-fluoro-4-4-2-(3,5-dimethylphenyl) pyrrolidin-1-yl-methylphenoxybenzamide]",SHAPS Total Score Change from Baseline LSMean Difference (SE) Treatment-Placebo,"eITT Analysis Set, Treatment Week 1",−0.8
same,SHAPS Total Score Change from Baseline LSMean Difference (SE) Treatment-Placebo,"eITT Analysis Set, Treatment Week 3",−1.4
same,SHAPS Total Score Change from Baseline LSMean Difference (SE) Treatment-Placebo,"eITT Analysis Set, Treatment Week 4",−1.4
same,SHAPS Total Score Change from Baseline LSMean Difference (SE) Treatment-Placebo,"eITT Analysis Set, Treatment Week 5",−0.5
same,SHAPS Total Score Change from Baseline LSMean Difference (SE) Treatment-Placebo,"eITT Analysis Set, Treatment Week 6",−0.7
same,SHAPS Total Score Effect Size,"eITT Analysis Set, Treatment Week 6, negative favors aticaprant",−0.07
same,SHAPS total score: mean change from treatment baseline (SD),"eITT, Treatment Week 6",−4.6 (6.23)
same,SHAPS total score: observed effect size,"eITT, Treatment Week 6",0.07
same,Frequency of Subjects: No Anhedonia (SHAPS Total Score < 20),"fITT Analysis Set, Baseline/Day 22 (before treatment), N 83",1.2%
same,Frequency of Subjects: No Anhedonia (SHAPS Total Score < 20),"fITT Analysis Set, Treatment Baseline, N 83 (Table 64)",1.2%
same,SHAPS Total Score Change from Baseline LSMean Difference (SE) Treatment-Placebo,"fITT Analysis Set, Treatment Week 1",−1.0 (0.72)
same,SHAPS Total Score Change from Baseline LSMean Difference (SE) Treatment-Placebo,"fITT Analysis Set, Treatment Week 3",−1.4 (0.73)
same,SHAPS Total Score Change from Baseline LSMean Difference (SE) Treatment-Placebo,"fITT Analysis Set, Treatment Week 4",−1.6 (0.73)
same,SHAPS Total Score Mean Change from Baseline (SD),[1],−4.3 (5.70)
same,SHAPS Total Score Change from Baseline LSMean Difference (SE) Treatment-Placebo,[1],−0.8 (0.73)
same,SHAPS Total Score Change from Baseline LSMean Difference (SE) Treatment-Placebo,"fITT Analysis Set, Treatment Week 6",−0.8 (0.73)
same,Frequency of Subjects: High Level of Anhedonia (SHAPS Total Score >= 38),[2],26
same,Frequency of Subjects: Low Level of Anhedonia Score < 20) Total Score < 38),[2],34
same,Frequency of Subjects: No Anhedonia (SHAPS Total),[2],0
same,Frequency of Subjects: High Level of Anhedonia (SHAPS Total Score >= 38),[3],8
same,Frequency of Subjects: Low Level of Anhedonia Score < 20) Total Score < 38),[3],48
same,Frequency of Subjects: No Anhedonia (SHAPS Total),[3],3
same,Frequency of Subjects: Anhedonia (SHAPS Total Score >= 20),[4],82
same,Frequency of Subjects: No Anhedonia (SHAPS Total Score < 20),[4],1
same,Frequency of Subjects: High Level of Anhedonia (SHAPS Total Score >= 38),[5],30
same,Frequency of Subjects: Low Level of Anhedonia (20 >= SHAPS Total Score < 38),[5],52
same,Frequency of Subjects: No Anhedonia (SHAPS Total Score < 20),"number of subjects, fITT Analysis Set, Treatment Baseline, N 83 (Table 64)",1
